Results from US11897898B2, “Pyridine macrocycle compounds as ASK1 inhibiting agents” (BIOGEN MA INC., priority 2018, dated 2024).

What was measured:
[1] = target: T1, ASK1/MAP3K5 (Homo sapiens, UniProt Q99683); test: ASK1 enzyme assay (ASK1/MAP3K5 assay by Reaction Biology Corp., 33P-ATP filter-binding); format: biochemical; conditions: 20 μM myelin basic protein and 10 μM ATP; class symbols
T1 construct: purchased Reaction Biology Corp. (Malvern, Pa.)
T1 sequence (Q99683 1-1374): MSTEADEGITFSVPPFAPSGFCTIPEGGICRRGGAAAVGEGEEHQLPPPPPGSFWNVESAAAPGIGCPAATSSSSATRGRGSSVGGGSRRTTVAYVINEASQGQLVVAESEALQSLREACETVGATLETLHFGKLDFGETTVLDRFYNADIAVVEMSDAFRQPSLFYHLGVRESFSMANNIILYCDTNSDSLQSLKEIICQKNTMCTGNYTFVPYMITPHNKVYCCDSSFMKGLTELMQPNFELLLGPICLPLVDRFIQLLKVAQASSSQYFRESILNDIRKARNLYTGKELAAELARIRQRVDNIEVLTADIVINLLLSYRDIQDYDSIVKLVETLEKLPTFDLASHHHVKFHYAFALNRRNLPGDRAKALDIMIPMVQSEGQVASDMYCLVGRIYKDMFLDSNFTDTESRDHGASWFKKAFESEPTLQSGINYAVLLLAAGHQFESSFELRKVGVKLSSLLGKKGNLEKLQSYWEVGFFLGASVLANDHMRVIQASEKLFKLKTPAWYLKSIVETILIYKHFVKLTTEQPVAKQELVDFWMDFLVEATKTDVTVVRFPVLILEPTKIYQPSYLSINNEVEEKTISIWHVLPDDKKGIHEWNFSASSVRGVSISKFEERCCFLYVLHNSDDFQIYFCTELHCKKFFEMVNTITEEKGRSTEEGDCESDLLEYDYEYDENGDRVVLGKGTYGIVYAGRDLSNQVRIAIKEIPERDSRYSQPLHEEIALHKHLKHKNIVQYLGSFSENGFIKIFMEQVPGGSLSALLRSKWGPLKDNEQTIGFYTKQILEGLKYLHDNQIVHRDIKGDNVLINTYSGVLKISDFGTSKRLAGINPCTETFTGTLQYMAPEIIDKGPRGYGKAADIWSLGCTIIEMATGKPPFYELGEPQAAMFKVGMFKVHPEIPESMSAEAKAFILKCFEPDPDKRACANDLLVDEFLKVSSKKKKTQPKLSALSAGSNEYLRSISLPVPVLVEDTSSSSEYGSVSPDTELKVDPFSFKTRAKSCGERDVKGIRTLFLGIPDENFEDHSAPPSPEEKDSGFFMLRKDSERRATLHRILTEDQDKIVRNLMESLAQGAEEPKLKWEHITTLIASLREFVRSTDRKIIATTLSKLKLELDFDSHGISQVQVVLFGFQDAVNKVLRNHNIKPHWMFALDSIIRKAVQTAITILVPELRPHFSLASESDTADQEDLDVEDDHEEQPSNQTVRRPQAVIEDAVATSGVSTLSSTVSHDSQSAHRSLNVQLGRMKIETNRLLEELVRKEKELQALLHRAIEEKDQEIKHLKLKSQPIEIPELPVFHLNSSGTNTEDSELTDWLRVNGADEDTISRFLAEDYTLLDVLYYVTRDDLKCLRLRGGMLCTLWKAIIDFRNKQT
Method in brief: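 Human ASK1/MAP3K5 in pH 7.5 Hepes buffer with 20 μM myelin basic protein and 10 μM 33P-ATP; compounds preincubated with kinase 20 min at room temperature. Reaction ran 2 h at room temperature; substrate phosphorylation measured by P81 filter binding.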

[2] = target: T2, ASK1 T838 auto phosphorylation (Homo sapiens, UniProt Q99683); test: ASK1 (AUTO PHOS T838) assay in HEK-293T cells, MSD format; format: cell-based; conditions: HEK-293T cells transfected with ASK1-V5, 1 hr compound incubation; class symbols
T2 construct: ASK1-V5 tagged full length plasmid; expressed in transfected cells; host or cells: HEK-293T
T2 sequence (Q99683 1-1374): T1 sequence (Q99683 1-1374)
Method in brief: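 HEK-293T cells transiently expressing full-length V5-tagged ASK1, treated 1 h at 37 °C with compound (top 20 µM, 3-fold, 10 points). Lysates captured on anti-V5 and probed with anti-pASK1 T838 in MSD electrochemiluminescence format. IC50 from 4-parameter fit of normalized % activity.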

Row | IC50 [1] [nM] | IC50 [2] [nM] | Compound
1 | ≤ 100 | ≤ 100 | C[C@H]1CCCOc2ncc(Br)cc2C(=O)Nc2cccc(n2)-c2nncn21 (single isomer, unassigned) [Compound 1]
2 | ≤ 100 | ≤ 100 | C[C@H]1CCCOc2ncc(-c3ccncc3)cc2C(=O)Nc2cccc(n2)-c2nncn21 [Compound 17, (S)-10-Methyl-5^5-(pyridin-4-yl)-1^4H-6-oxa-3-aza-2(2,6),5(3,2)-dipyridina-1(3,4)-triazolacyclodecaphan-4-one]
3 | ≤ 100 | 100 to 1000 | C[C@H]1CCCOc2ncc(C(F)(F)F)cc2C(=O)Nc2cccc(n2)-c2nncn21 (single isomer, unassigned) [Compound 41]
4 | ≤ 100 | 100 to 1000 | C[C@H]1CCCOc2ncccc2C(=O)Nc2cccc(n2)-c2nncn21 (single isomer, unassigned) [Compound 4]
5 | ≤ 100 | 100 to 1000 | C[C@H]1CCCOc2ncc(C#N)cc2C(=O)Nc2cccc(n2)-c2nncn21 [Compound 38, (S)-10-Methyl-4-oxo-1^4H-6-oxa-3-aza-2(2,6),5(3,2)-dipyridina-1(3,4)-triazolacyclodecaphane-5^5-carbonitrile]
